{"source": "patent US20250161329A1", "about": "“USE OF UV FILTERS FOR THE TREATMENT OF ACNE” (DSM IP ASSETS B.V., priority 2022, published 2025)", "key": {"[1]": {"system": "Cutibacterium acnes ATCC 11827", "assay": "In vitro UV model, survival of C. acnes after UV irradiation (96-well liquid model, plate counting)", "type": "cell-based", "conditions": "for C. acnes relative protection by the UV filter(s) vs. vehicle control / C. acnes survival: UV 3 SED (UVA+UVB 30 mJ/cm^2), after 4 h, sample at 20% v/v; for C. acnes relative protection by the UV filter(s) vs. vehicle control: (sample survival - vehicle survival)/vehicle survival; for C. acnes survival: compared to untreated and non-irradiated control", "experimental": "Accordingly, the inventors developed a targeted in vitro liquid model in 96-well microplate format to screen for UV protective actives (“UV filters”) on bacterial survival. The effects of selected UV irradiation conditions tested on microbial population of C. acnes and the commensal reference strain of Staphylococcus epidermidis in the presence of various UV filters and combinations thereof were evaluated with the evolution of the residual microbial population after 4 h. The inhibition of bacterial growth, as consequence of UV irradiation, was compared to that of the same strain without UV irradiation and was expressed in percentage of survival (%). The microbial strains used in this study are listed below and their cultures are reconstituted according to the direction of the supplier collection center of the reference strain, (ATCC American Type Culture Collection, USA): • Cutibacterium acnes ATCC 11827 • Staphylococcus epidermidis ATCC 12228 The 96-well plate was filled with the recommended culture media (140 μL) and a calibrated inoculum (20 μL) of each bacterial strain was added to reach […] colony forming units per milliliter (cfu/mL) final concentration. After contamination, the sample was added (40 μL; 20% v/v) in triplicate and was thoroughly mixed to ensure a homogeneous distribution. Then, the plate was submitted to UV stress through an UV irradiator system (BioSun, Vilber Lourmat, France) according to the UV doses presented Table 1 below. The specific UV dose selected was between 10 and 49% survival of the microbial population. The counting of C. acnes microbial population was performed by plating aliquots on the agar plates and was done in triplicate. The enumeration of grown C. acnes colonies was used to determine the decrease rate of microbial population. Controls performed during this experiment were the culture medium with bacteria incubated without UV stress. The microbial population counts were expressed in cfu/mL and were the average of experiment done in triplicate. The use level of the single UV filter and combinations in the test formulations was calculated to obtain a predicted in vitro SPF value of 5.75+/−0.15 and 23.45+/−0.65, respectively (Table 2). The UV filters were mixed in the two oils, Tegosoft XC (55%) and Miglyol 829 Eco (ad100%) and the emulsifier Tween 80 (5%). The effect of selected UV irradiation conditions on the survival of microbial population of C. acnes and S. epidermidis in the presence of the tested samples 1-10 at 20% v/v, was compared with the corresponding strain in the absence of samples 1-10 and without exposure to UV irradiation (control). The results after the 4-hour incubation were compared to the population of bacteria incubated without UV stress (determination of bacterial population survival) and were expressed in percentage of survival (%). The relative percentage of protection (%) was calculated from the difference between the survival percentages of samples and vehicle control (with UV irradiation) and divided to the survival percentage of the vehicle control. Consequently, the survival of each microbial population and the relative protection by the UV filter(s) were calculated and are summarized in the Table 2."}, "[2]": {"system": "Staphylococcus epidermidis ATCC 12228", "assay": "In vitro UV model, survival of S. epidermidis after UV irradiation (96-well liquid model, MPN method)", "type": "cell-based", "experimental": "Accordingly, the inventors developed a targeted in vitro liquid model in 96-well microplate format to screen for UV protective actives (“UV filters”) on bacterial survival. The effects of selected UV irradiation conditions tested on microbial population of C. acnes and the commensal reference strain of Staphylococcus epidermidis in the presence of various UV filters and combinations thereof were evaluated with the evolution of the residual microbial population after 4 h. The inhibition of bacterial growth, as consequence of UV irradiation, was compared to that of the same strain without UV irradiation and was expressed in percentage of survival (%). […] The use level of the single UV filter and combinations in the test formulations was calculated to obtain a predicted in vitro SPF value of 5.75+/−0.15 and 23.45+/−0.65, respectively (Table 2). […] The relative percentage of protection (%) was calculated from the difference between the survival percentages of samples and vehicle control (with UV irradiation) and divided to the survival percentage of the vehicle control. Consequently, the survival of each microbial population and the relative protection by the UV filter(s) were calculated and are summarized in the Table 2."}}}
{"smiles": "CCCCC(CC)COC(=O)C(C#N)=C(c1ccccc1)c1ccccc1", "note": "(stereo not shown) [Inv. 1, Octocrylene]", "values": [{"measurement": "effect on the population of C. acnes upon UV irradiation (in words)", "setting": "[1]; C. acnes ATCC 11827, phylotype IA, upon UV irradiation", "value": "reduced the population of C. acnes"}, {"measurement": "C. acnes relative protection by the UV filter(s) vs. vehicle control", "setting": "[1]", "value": "(−15) %"}, {"measurement": "C. acnes survival", "setting": "[1]", "value": 56, "unit": "%"}, {"measurement": "effect on the commensal bacterium S. epidermidis upon UV irradiation (in words)", "setting": "[2]", "value": "maintain or even propagating the commensal bacterium S. epidermidis"}]}
{"smiles": "CCCCC(CC)COC(=O)c1ccccc1O", "note": "(stereo not shown) [Inv. 2, Ethylhexyl Salicylate]", "values": [{"measurement": "C. acnes relative protection by the UV filter(s) vs. vehicle control", "setting": "[1]", "value": "(−30) %"}, {"measurement": "C. acnes survival", "setting": "[1]", "value": 46, "unit": "%"}]}
{"smiles": "CCCCC(CC)COC(=O)c1ccc(Nc2nc(Nc3ccc(C(=O)OCC(CC)CCCC)cc3)nc(Nc3ccc(C(=O)OCC(CC)CCCC)cc3)n2)cc1", "note": "(stereo not shown) [Ref. 1, Ethylhexyl Triazone, reference compound]", "values": [{"measurement": "C. acnes relative protection by the UV filter(s) vs. vehicle control", "setting": "[1]", "value": "(+40) %"}, {"measurement": "C. acnes survival", "setting": "[1]", "value": 92, "unit": "%"}]}
{"smiles": "CCCCC(CC)COc1ccc(-c2nc(-c3ccc(OC)cc3)nc(-c3ccc(OCC(CC)CCCC)cc3O)n2)c(O)c1", "note": "(stereo not shown) [Ref. 2, Bis-Ethylhexyloxyphenol Methoxyphenyl Triazine, reference compound]", "values": [{"measurement": "C. acnes relative protection by the UV filter(s) vs. vehicle control", "setting": "[1]", "value": "(+13) %"}, {"measurement": "C. acnes survival", "setting": "[1]", "value": 74, "unit": "%"}]}
